Results published in patent US9790286B2, “Stereoisomer peptides, their polymer conjugates, their encapsulation into nanoparticles, and uses thereof for the treatment of diseases caused by abnormal angiogenesis” (priority 2013, dated 2017).

Legend:
MiaPaca-2 Xenograft = experiment: MIAPaCa-2 xenograft mouse model of pancreatic ductal carcinoma; assay type: in vivo; conditions: 120 mg/Kg i.p. twice a week for 6 weeks
Method: (§1) Peptides in their stereoisomer forms were tested in vivo using two mouse models of human pancreatic ductal adenocarcinoma: the PANC-1 Xenograft mouse model and the MiaPaca-2 Xenograft mouse model. Athymic male nude mice (nu/nu) were injected s.c. with cultured […] human pancreatic cancer cells from each different model in the right mice flanks After tumors reached ˜150 mm^3 mice were randomly separated into three groups (n=3/group). Group 1 was treated with vehicle; Group 2 was treated with 120 mg/Kg Gemcitabine (standard established dose); and Group 3 was treated with 25 mg/kg of a combination of four stereoisomer peptides. Mice were dosed by i.p. injection twice a week for 6 weeks.
In this model the tumors of treated mice grew slowly compared to untreated mice (see FIG. 14A). […] These two human mouse models confirm the therapeutic potency, efficacy, and value of the stereoisomer peptides to treat pancreatic cancer, one of the deadliest cancers for which there are no therapies.

PANC-1 Xenograft = experiment: PANC-1 xenograft mouse model of pancreatic ductal carcinoma; assay type: in vivo; conditions: 120 mg/Kg i.p. twice a week for 6 weeks
Method: as §1

In the case of `Nc1ccn([C@@H]2O[C@H](CO)[C@@H](O)C2(F)F)c(=O)n1` [Gemcitabine], the body weight (MiaPaca-2 Xenograft) is reported as “lost body weight”, the condition of mice (MiaPaca-2 Xenograft) is reported as “moribund” and the livers after euthanasia (MiaPaca-2 Xenograft) is reported as “dark with signs of necrosis”. For the same compound, the condition of mice (PANC-1 Xenograft) was “moribund”.
